From paper PMC5465257, “Evaluation of JNJ-54717793 a Novel Brain Penetrant Selective Orexin 1 Receptor Antagonist in Two Rat Models of Panic Attack Provocation” (Frontiers in Pharmacology, 2017)
Where two headings read alike, the source gives them in different places.

Legend:
[1] = molecular target: T1, OX1R in rat brain (tenia tecta) (Rattus norvegicus, UniProt P56718); assay: Ex vivo OX1R receptor occupancy autoradiography in rat brain (tenia tecta), with plasma bioanalysis
T1 construct: Twenty micron thick tissue sections at the level of the tenia tecta were prepared for autoradiography; from tissue; host or cells: brain sections (tenia tecta) of male Sprague-Dawley rats
T1 sequence (P56718 1-416): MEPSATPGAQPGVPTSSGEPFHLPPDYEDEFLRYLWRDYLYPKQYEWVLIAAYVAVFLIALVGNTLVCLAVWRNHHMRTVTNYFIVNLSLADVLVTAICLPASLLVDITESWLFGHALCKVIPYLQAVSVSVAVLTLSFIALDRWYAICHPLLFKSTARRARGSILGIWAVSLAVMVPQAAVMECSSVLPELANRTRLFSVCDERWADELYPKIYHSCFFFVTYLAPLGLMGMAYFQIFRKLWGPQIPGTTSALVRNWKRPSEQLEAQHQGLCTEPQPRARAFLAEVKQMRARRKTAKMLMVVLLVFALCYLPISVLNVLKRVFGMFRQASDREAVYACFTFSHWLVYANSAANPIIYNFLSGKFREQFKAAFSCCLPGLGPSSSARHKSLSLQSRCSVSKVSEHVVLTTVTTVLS
Procedure: (§1) Experiments were performed as previously described ([Dugovic et al., 2009]) in male Sprague-Dawley rats (300–400 g, Charles River Laboratories, San Diego, CA, United States). The animals were euthanized using carbon dioxide and decapitated at different time points after drug administration (n = 3 per time point or dose regimen). Brains were rapidly frozen on powdered dry ice and stored at -80°C before sectioning. Plasma samples were also collected for bioanalysis (LC–MS/MS). Twenty micron thick tissue sections at the level of the tenia tecta were prepared for autoradiography. OX1R radioligand binding autoradiography was determined at room temperature with 5 nM [^3H]SB-674042. Sections were incubated for 10 min to minimize dissociation. Non-specific binding was determined in the presence of 10 μM SB-674042. Ex vivo receptor labeling was expressed as the percentage of receptor labeling in corresponding brain areas (i.e., tenia tecta) of vehicle-treated animals. The percentage of receptor occupancy was plotted against time or dosage using GraphPad Prism (GraphPad Software, San Diego, CA, United States). Percentage of receptor occupancy was also plotted against drug plasma or brain concentration. Pharmacokinetic parameters were analyzed using a non-compartmental model using the software package WinNonlin Version 4.0.1 (Pharsight, Palo Alto, CA, United States).
(§2) In vivo occupancy of the OX1R was assessed by ex vivo receptor binding autoradiography of [^3H]SB-674042 in rat brain tissue sections at the level of the tenia tecta. Time-dependency and dose-dependency were assessed after oral dosing (Figure 2).

[2] = as above; conditions: male, Sprague-Dawley, plasma
Procedure: as §1, §2

human OX1R [3] = molecular target: T2, human OX1R (Homo sapiens, UniProt O43613); assay: Human OX1R competitive radioligand binding ([3H]SB-674042); parameters: expressed in transfected cells; host or cells: clonal CHO-K1 cells
T2 sequence (O43613 1-425): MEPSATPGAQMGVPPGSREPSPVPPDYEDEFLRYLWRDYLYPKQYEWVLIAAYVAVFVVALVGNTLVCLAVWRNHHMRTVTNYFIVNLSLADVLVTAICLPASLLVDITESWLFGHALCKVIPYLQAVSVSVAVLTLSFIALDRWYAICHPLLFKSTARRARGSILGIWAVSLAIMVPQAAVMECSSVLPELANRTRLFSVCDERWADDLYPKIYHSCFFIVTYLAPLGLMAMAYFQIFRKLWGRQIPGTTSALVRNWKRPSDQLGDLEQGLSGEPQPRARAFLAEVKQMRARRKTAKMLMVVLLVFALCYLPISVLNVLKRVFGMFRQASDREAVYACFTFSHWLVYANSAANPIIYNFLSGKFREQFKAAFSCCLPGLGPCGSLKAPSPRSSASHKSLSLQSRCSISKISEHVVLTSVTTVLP
Procedure: (§3) Human or rat OX1R binding was measured in competitive radioligand binding assays using [^3H]SB-674042 (1-(5-(2-fluoro-phenyl)-2-methyl-thiazol-4-yl)-1-((S)-2-(5-phenyl-(1,3,4)oxadiazol-2-ylmethyl)-pyrrolidin-l-yl)-methanone) as a tracer (4 nM, specific activity 35 Ci/mmol) as previously described ([Langmead et al., 2004]). Cell membranes were prepared from clonal CHO K1 cells transfected with the human OX1R or clonal HEK-293 cells transfected with the rat OX1R. Dilutions of test compounds were made in Dulbecco’s PBS from 10 mM stocks dissolved in dimethyl sulfoxide. After a 60 min incubation at room temperature, binding reactions were filtered. The membranes were counted in a scintillation counter. Non-specific binding was determined in the presence of 10 μM almorexant. Affinities of compounds for the human OX2R were measured by competitive radioligand binding using tritiated N-ethyl-2-[(6-methoxy-pyridin-3-yl)-(toluene-2-sulfonyl)-amino]-N-pyridin-3-ylmethyl-acetamide (EMPA) (2 nM, specific activity 27 Ci/mmol) ([Malherbe et al., 2009]). Cell membranes were prepared from a stable pool of HEK-293 cells transfected with the human OX2R. Non-specific binding was determined with 10 μM almorexant.
(§4) The Ki of the test compounds was calculated based on non-linear regression (one site competition) using Graphpad Prism. […]

rat OX1R [4] = molecular target: T3, rat OX1R (Rattus norvegicus, UniProt P56718); assay: Calcium mobilization functional assay, HEK-293 cells, OX-A EC80
T3 sequence (P56718 1-416): T1 sequence (P56718 1-416)
Procedure: (§5) Stably transfected CHO-K1 cells for the human OX1R or HEK-293 cells for the rat OX1R were used for the in vitro functional assays. […] Since the intracellular calcium response is transient and not consistent with equilibrium assumptions, the assays were performed by giving a standard, EC80 dose of the OX agonist and calculating a pKB from inhibition of the agonist response by a dose range of the antagonists. The cells were plated in black 96 well tissue culture plates with clear bottoms at 50,000 cells/well and grown overnight at 37°C in 5% carbon dioxide (CO2). […] The cell plate was then transferred to the Molecular Devices Fluorometric Imaging Plate Reader (FLIPR) Tetra instrument, which adds the OX agonist and monitors changes in fluorescence which reflect intracellular calcium levels.
(§6) Results were calculated using GraphPad Prism (San Diego, CA, United States) software. Raw data from the FLIPR Tetra was exported as the difference between maximum and minimum fluorescence observed for each well. A non-linear regression was used to determine the agonist EC50 and antagonist IC50 for each plate, then the antagonist KB was calculated according to Cheng and Prusoff ([Cheng and Prusoff, 1973]).

human OX1R [5] = molecular target: T2, human OX1R; assay: Calcium mobilization functional assay, CHO-K1 cells, OX-A EC80
Procedure: as §5, §6

rat OX1R [6] = molecular target: T3, rat OX1R; assay: Rat OX1R competitive radioligand binding ([3H]SB-674042); parameters: expressed in transfected cells; host or cells: clonal HEK-293 cells
Procedure: as §3, §4

O=C(c1cccc(F)c1-c1ncccn1)N1[C@@H]2CC[C@H]1[C@H](Nc1cnc(C(F)(F)F)cn1)C2 [JNJ-54717793, (1S,2R,4R)-7-([(3-fluoro-2-pyrimidin-2-ylphenyl)carbonyl]-N-[5-(trifluoromethyl)pyrazin-2-yl]-7-azabicyclo[2.2.1]heptan-2-amine)]
level of OX1R occupancy ([1]; 30 mg/kg oral, after the first 6 h): negligible | receptor occupancy at 30 mg/kg ([1]; 30 mg/kg oral, first 6 h, read-out: level of OX1R occupancy): > 58% | receptor occupancy at 30 mg/kg ([1]; 30 mg/kg oral, observed at 15 min, read-out: maximal OX1R occupancy): 87 ± 3% | ED50 ([1]; oral, 60 min after treatment): 1.3 mg/kg | receptor occupancy at 3 mg/kg ([1]; oral, reached at 3 mg/kg, 60 min after treatment, read-out: plateau for maximal OX1R occupancy): 80 to 90% | concentration at 60 min ([2]; 1.3 mg/kg, oral, 95% confidence interval 26 to 277 ng/ml, read-out: plasma exposure corresponding to ED50): 84 ng/mL | concentration at 60 min ([2]; 3 mg/kg oral, read-out: plasma concentration at plateau of occupancy): ~311 ng/mL | concentration at 15 min ([2]; 30 mg/kg oral, 15 min, read-out: plasma concentration at maximal OX1R occupancy): 3730 ± 440 ng/mL | Ki (human OX1R [3]): 14.8 nM | binding selectivity at the human OX1R compared to the human OX2R (human OX1R [3]; hOX1R versus hOX2R): 50 fold | Kb (rat OX1R [4]): 35.5 nM | Kb (human OX1R [5]): 16.6 nM | Ki (rat OX1R [6]): 14.5 nM
